Laboratory results reported in EP0238060B1, “Cephalosporin derivatives, processes for their preparation and antibacterial agents” (Banyu Pharmaceutical Co., Ltd., priority 1986, dated 1987).
≈ marks a conversion by molar mass, not a printed value. Read-outs that look alike come from different tables or passages of the source.

Columns and labels:
Experiment in all cases: In vitro antibacterial activity, agar plate dilution method (MIC)
E.coli GN5482 = type: cell-based; settings: Escherichia coli; E.coli GN5482 (β-Lactamase-producing strain); Mueller Hinton agar, inoculum 10⁶ CFU/ml, 37°C, 16 hours; read-out: Minimum Inhibitory Concentration (MIC: µg/ml)
K.pneumoniae No. 42 = type: cell-based; settings: Klebsiella pneumoniae, read-out: Minimum Inhibitory Concentration (MIC: µg/ml)
A.calcoaceticus No. 4 = type: cell-based; settings: Acinetobacter calcoaceticus; A.calcoaceticus No. 4; Mueller Hinton agar, inoculum 10⁶ CFU/ml, 37°C, 16 hours; read-out: Minimum Inhibitory Concentration (MIC: µg/ml)
Ps.aeruginosa AK 109 = type: cell-based; settings: Pseudomonas aeruginosa, AK109; Ps.aeruginosa AK 109; Mueller Hinton agar, inoculum 10⁶ CFU/ml, 37°C, 16 hours; read-out: Minimum Inhibitory Concentration (MIC: µg/ml)
E.cloacae 963 = type: cell-based; settings: Enterobacter cloacae; E.cloacae 963; Mueller Hinton agar, inoculum 10⁶ CFU/ml, 37°C, 16 hours; read-out: Minimum Inhibitory Concentration (MIC: µg/ml)
P.vulgaris HX-19 = type: cell-based; settings: Proteus vulgaris, HX19; P.vulgaris HX-19; Mueller Hinton agar, inoculum 10⁶ CFU/ml, 37°C, 16 hours; read-out: Minimum Inhibitory Concentration (MIC: µg/ml)
E.coli CSH2 (RK1) = type: cell-based; settings: Escherichia coli, 16 h, read-out: Minimum Inhibitory Concentration (MIC: µg/ml)
S.aureus JS1 = type: cell-based; settings: Staphylococcus aureus; S.aureus JS1 (β-Lactamase-producing strain); Mueller Hinton agar, inoculum 10⁶ CFU/ml, 37°C, 16 hours; read-out: Minimum Inhibitory Concentration (MIC: µg/ml)
K.oxytoca GN10650 = type: cell-based; settings: Klebsiella oxytoca; K.oxytoca GN10650 (β-Lactamase-producing strain); Mueller Hinton agar, inoculum 10⁶ CFU/ml, 37°C, 16 hours; read-out: Minimum Inhibitory Concentration (MIC: µg/ml)
E.coli CSH(RE45) = type: cell-based; settings: Escherichia coli, 16 h, read-out: Minimum Inhibitory Concentration (MIC: µg/ml)
C.freundii GN346/16 = type: cell-based; settings: Citrobacter freundii; C.freundii GN346/16; Mueller Hinton agar, inoculum 10⁶ CFU/ml, 37°C, 16 hours; read-out: Minimum Inhibitory Concentration (MIC: µg/ml)
Ps.aeruginosa AKR17 = type: cell-based; settings: Pseudomonas aeruginosa; Ps.aeruginosa AKR17; Mueller Hinton agar, inoculum 10⁶ CFU/ml, 37°C, 16 hours; read-out: Minimum Inhibitory Concentration (MIC: µg/ml)
E.cloacae Nek 39 = type: cell-based; settings: Enterobacter cloacae, NEK39; E.cloacae Nek 39 (β-Lactamase-producing strain); Mueller Hinton agar, inoculum 10⁶ CFU/ml, 37°C, 16 hours; read-out: Minimum Inhibitory Concentration (MIC: µg/ml)
M.morganii GN5407 = type: cell-based; settings: Morganella morganii; M.morganii GN5407 (β-Lactamase-producing strain); Mueller Hinton agar, inoculum 10⁶ CFU/ml, 37°C, 16 hours; read-out: Minimum Inhibitory Concentration (MIC: µg/ml)
M.luteus ATCC9341 = type: cell-based; settings: Micrococcus luteus; M.luteus ATCC9341; Mueller Hinton agar, inoculum 10⁶ CFU/ml, 37°C, 16 hours; read-out: Minimum Inhibitory Concentration (MIC: µg/ml)
S.epidermidis IAM12012 = type: cell-based; settings: Staphylococcus epidermidis; S.epidermidis IAM12012; Mueller Hinton agar, inoculum 10⁶ CFU/ml, 37°C, 16 hours; read-out: Minimum Inhibitory Concentration (MIC: µg/ml)
C.freundii GN346 = type: cell-based; settings: Citrobacter freundii; C.freundii GN346 (β-Lactamase-producing strain); Mueller Hinton agar, inoculum 10⁶ CFU/ml, 37°C, 16 hours; read-out: Minimum Inhibitory Concentration (MIC: µg/ml)
S.marcescens IAM 1184 = type: cell-based; settings: Serratia marcescens, read-out: Minimum Inhibitory Concentration (MIC: µg/ml)
S.aureus BB5703 = type: cell-based; settings: Staphylococcus aureus; S.aureus BB5703; Mueller Hinton agar, inoculum 10⁶ CFU/ml, 37°C, 16 hours; read-out: Minimum Inhibitory Concentration (MIC: µg/ml)
K.pneumoniae PCI-602 = type: cell-based; settings: Klebsiella pneumoniae, PCI602; K.pneumoniae PCI-602; Mueller Hinton agar, inoculum 10⁶ CFU/ml, 37°C, 16 hours; read-out: Minimum Inhibitory Concentration (MIC: µg/ml)
P.vulgaris No. 33 = type: cell-based; settings: Proteus vulgaris; P.vulgaris No. 33 (β-Lactamase-producing strain); Mueller Hinton agar, inoculum 10⁶ CFU/ml, 37°C, 16 hours; read-out: Minimum Inhibitory Concentration (MIC: µg/ml)
S.marcescens No. 16-2 = type: cell-based; settings: Serratia marcescens, NO.162; S.marcescens No. 16-2 (β-Lactamase-producing strain); Mueller Hinton agar, inoculum 10⁶ CFU/ml, 37°C, 16 hours; read-out: Minimum Inhibitory Concentration (MIC: µg/ml)
Ps.aeruginosa IFO3445 = type: cell-based; settings: Pseudomonas aeruginosa; Ps.aeruginosa IFO3445; Mueller Hinton agar, inoculum 10⁶ CFU/ml, 37°C, 16 hours; read-out: Minimum Inhibitory Concentration (MIC: µg/ml)
E.coli NIHJ JC2 = type: cell-based; settings: Escherichia coli, NIHJJC2; E.coli NIHJ JC2; Mueller Hinton agar, inoculum 10⁶ CFU/ml, 37°C, 16 hours; read-out: Minimum Inhibitory Concentration (MIC: µg/ml)
S.aureus 209P NIHJ-JC1 = type: cell-based; settings: Staphylococcus aureus; S.aureus 209P NIHJ-JC1; Mueller Hinton agar, inoculum 10⁶ CFU/ml, 37°C, 16 hours; read-out: Minimum Inhibitory Concentration (MIC: µg/ml)
Ps.cepacia 23 = type: cell-based, Pseudomonas cepacia; settings: Burkholderia cepacia; Ps.cepacia 23; Mueller Hinton agar, inoculum 10⁶ CFU/ml, 37°C, 16 hours; read-out: Minimum Inhibitory Concentration (MIC: µg/ml)
Ps.maltophilia GN 12873 = type: cell-based, Pseudomonas maltophilia; settings: Stenotrophomonas maltophilia, GN12873; Ps.maltophilia GN 12873 (β-Lactamase-producing strain); Mueller Hinton agar, inoculum 10⁶ CFU/ml, 37°C, 16 hours; read-out: Minimum Inhibitory Concentration (MIC: µg/ml)
[1] = K.pneumoniae No. 42 (β-Lactamase-producing strain), Mueller Hinton agar, inoculum 10⁶ CFU/ml, 37°C, 16 hours
[2] = IAM1184, S.marcescens IAM 1184, Mueller Hinton agar, inoculum 10⁶ CFU/ml, 37°C, 16 hours

| Structure (SMILES) | MIC (E.coli GN5482) [µg/mL] | MIC (A.calcoaceticus No. 4) [µg/mL] | MIC (Ps.aeruginosa AK 109) [µg/mL] | MIC (E.cloacae 963) [µg/mL] | MIC (P.vulgaris HX-19) [µg/mL] | MIC (E.coli CSH2 (RK1)) [µg/mL] | MIC (S.aureus JS1) [µg/mL] | MIC (K.oxytoca GN10650) [µg/mL] | MIC (E.coli CSH(RE45)) [µg/mL] | MIC (C.freundii GN346/16) [µg/mL] | MIC (Ps.aeruginosa AKR17) [µg/mL] | MIC (E.cloacae Nek 39) [µg/mL] | MIC (M.morganii GN5407) [µg/mL] | MIC (M.luteus ATCC9341) [µg/mL] | MIC (S.epidermidis IAM12012) [µg/mL] | MIC (C.freundii GN346) [µg/mL] | MIC (S.aureus BB5703) [µg/mL] | MIC (K.pneumoniae PCI-602) [µg/mL] | MIC (P.vulgaris No. 33) [µg/mL] | MIC (S.marcescens No. 16-2) [µg/mL] | further results |
| --- | --- | --- | --- | --- | --- | --- | --- | --- | --- | --- | --- | --- | --- | --- | --- | --- | --- | --- | --- | --- | --- |
| C=CCON=C(C(=O)NC1C(=O)N2C(C(=O)[O-])=C(C[n+]3ccc4cc(O)c(O)cc4c3)CS[C@H]12)c1csc(N)n1 (stereo partly drawn) [Ex. 3, 7-[2-allyloxyimino-2-(2-aminothiazol-4-yl)acetamido]-3-(6,7-dihydroxy-2-isoquinolinio)methyl-3-cephem-4-carboxylate] | 0.39 (≈ 0.669 µM) | 0.2 (≈ 0.343 µM) | 0.78 (≈ 1.34 µM) | 0.05 (≈ 0.0858 µM) | < 0.006 | 0.0125 (≈ 0.0215 µM) | 12.5 (≈ 21.5 µM) | 3.12 (≈ 5.36 µM) | 0.025 (≈ 0.0429 µM) | 0.39 (≈ 0.669 µM) | 100 (≈ 172 µM) | 0.1 (≈ 0.172 µM) | 0.05 (≈ 0.0858 µM) | 0.2 (≈ 0.343 µM) | 0.39 (≈ 0.669 µM) | 50 (≈ 85.8 µM) | 6.25 (≈ 10.7 µM) | < 0.006 | 0.1 (≈ 0.172 µM) | 1.56 (≈ 2.68 µM) | MIC (K.pneumoniae No. 42; [1]): 0.1 µg/mL (≈ 0.172 µM); MIC (S.marcescens IAM 1184; IAM1184, 16 h): 0.0125 µg/mL (≈ 0.0215 µM); MIC (Ps.aeruginosa IFO3445): 0.39 µg/mL (≈ 0.669 µM); MIC (E.coli NIHJ JC2): 0.1 µg/mL (≈ 0.172 µM); MIC (S.aureus 209P NIHJ-JC1): 0.78 µg/mL (≈ 1.34 µM); MIC (Ps.cepacia 23): < 0.006 µg/mL; MIC (Ps.maltophilia GN 12873): > 100 µg/mL |
| CO/N=C(\C(=O)NC1C(=O)N2C(C(=O)[O-])=C(C[n+]3ccc4cc(OC(C)=O)c(OC(C)=O)cc4c3)CSC12)c1csc(N)n1 (stereo not drawn) [Ex. 8, 3-(6,7-diacetoxy-2-isoquinolino)methyl-7-[2-(2-aminothiazol-4-yl)-2-methoxyiminoacetamido]-3-cephem-4-carboxylate] | 0.78 (≈ 1.22 µM) | 0.2 (≈ 0.312 µM) | 0.78 (≈ 1.22 µM) | 0.025 (≈ 0.039 µM) | 0.025 (≈ 0.039 µM) | 0.0125 (≈ 0.0195 µM) | 50 (≈ 78 µM) | 0.2 (≈ 0.312 µM) | 0.1 (≈ 0.156 µM) | 0.78 (≈ 1.22 µM) | 100 (≈ 156 µM) | 0.2 (≈ 0.312 µM) | 0.05 (≈ 0.078 µM) | 0.78 (≈ 1.22 µM) | 3.12 (≈ 4.87 µM) | 50 (≈ 78 µM) | 12.5 (≈ 19.5 µM) | < 0.006 | 0.1 (≈ 0.156 µM) | 1.56 (≈ 2.44 µM) | MIC (K.pneumoniae No. 42; NO.42, 16 h): 0.0125 µg/mL (≈ 0.0195 µM); MIC (S.marcescens IAM 1184; [2]): 0.025 µg/mL (≈ 0.039 µM); MIC (Ps.aeruginosa IFO3445): 0.78 µg/mL (≈ 1.22 µM); MIC (E.coli NIHJ JC2): 0.1 µg/mL (≈ 0.156 µM); MIC (S.aureus 209P NIHJ-JC1): 6.25 µg/mL (≈ 9.76 µM); MIC (Ps.cepacia 23): 0.2 µg/mL (≈ 0.312 µM); MIC (Ps.maltophilia GN 12873): > 100 µg/mL |
| CC(C)(ON=C(C(=O)NC1C(=O)N2C(C(=O)[O-])=C(C[n+]3ccc4ccccc4c3)CSC12)c1csc(N)n1)C(=O)O (stereo not drawn) [Reference Ex. 1, sodium 7-[2-(2-aminothiazol-4-yl)-2-(l-carboxylato-l-methylethoxyimino)acetamido]-3-(2-isoquinolinio)methyl-3-cephem-4-carboxylate, reference compound] | 0.78 | 25 | 3.12 | 0.2 | 0.0125 | 0.05 | 50 | 0.2 | 0.1 | 0.2 | 100 | 1.56 | 0.05 | 0.78 | 1.56 | 50 | 25 | 0.0125 | 0.1 | 1.56 | MIC (K.pneumoniae No. 42; [1]): 0.39 µg/mL; MIC (S.marcescens IAM 1184; [2]): 0.05 µg/mL; MIC (Ps.aeruginosa IFO3445): 3.12 µg/mL; MIC (E.coli NIHJ JC2): 0.2 µg/mL; MIC (S.aureus 209P NIHJ-JC1): 6.25 µg/mL; MIC (Ps.cepacia 23): 6.25 µg/mL; MIC (Ps.maltophilia GN 12873): 12.5 µg/mL |
